Data: patent publication US9125898B2, “Acetam derivatives for pain relief” (NEUROTUNE AG, priority 2008, dated 2015)
“Also recorded” adds a separate entry of the source.

Columns and labels:
Assay type in all cases: in vivo
[1] = tested on: oxaliplatin induced hyperalgesia in the rat; experiment: Oxaliplatin induced hyperalgesia in the rat paw-pressure test; details: for Paw pressure, pre-test before all treatments: baseline, drug 100 mg/kg p.o.; for Paw pressure, 1a week - 30 min / Paw pressure, 2a week - 30 min / Paw pressure, 3a week - 30 min / Paw pressure, 3a week - 4 h / Paw pressure, 3a week - 8 h / Paw pressure, 3a week - 24 h: drug 100 mg/kg p.o. once daily
Description: Drugs: The following substance was used: NT-13317 (batch No. RR0011-184A1 supplied by Brane Discovery Srl, Gerenzano Italy). NT-13317 was dissolved in DMSO 20%, 10% glucose and administered at the dose of 10, 30 and 100 mg/kg p.o.
Gabapentin (Sigma) was dissolved in 1% CMC (carboxymethylcellulose-Sigma) and orally administered at 100 mg/kg, and dissolved in saline and i.v. administered at 3 mg/kg.
Oxaliplatin model: A peripheral neuropathy was induced in adult rats, by administration of oxaliplatin (Tocris), at 2.4 mg/kg i.p. in saline once a day on days 1, 2, 3, 4, 5, 8, 9, 10, 11, 12, 15, 16, 17, 18, 19 (cumulative dose 36 mg/kg) according to [1].
In the first experiment NT-13317 and gabapentin were given chronically at the dose 100 mg/kg po starting 3 days before oxaliplatin and every day for 5 days/week for 3 weeks.
A dose-response experiment was then performed with NT-13317 (10, 30 and 100 mg/kg po) using the same treatment schedule.
Paw pressure test: Paw mechanical sensitivity was determined using a Randall & Selitto apparatus exerting a force that increases at constant rate (32 g/s). The stimulus at which rats withdrawn the paw was evaluated before and at different times after treatment. Results represent the mean of mechanical thresholds expressed as grams. To avoid any possible damage to the animal paw the maximum applied force was fixed at 240 g.
(§1) Statistical analysis: All experimental results are given as the mean±S.E.M. An analysis of variance, ANOVA, followed by Fisher's protected least significant difference procedure for post hoc comparison, were used to verify significance between two means of behavioral results. Data were analyzed with the StatView software for the Macintosh (1992). P values≦0.05 were considered significant.

[2] = tested on: chronic constriction injury induced hyperalgesia in the rat; experiment: Chronic constriction injury induced hyperalgesia in the rat (paw-pressure test); details: for Paw pressure, pre-test before all treatments: baseline, drug 100 mg/kg p.o.; for Paw pressure, 5 day 30 min / Paw pressure, 10 day 30 min / Paw pressure, 14 day 30 min / Paw pressure, 14 day 4 h / Paw pressure, 14 day 8 h / Paw pressure, 15 day 24 h / Paw pressure, 18 day 3 days: 100 mg/kg p.o. once a day for 14 days
Description: In the repeated administration protocol, NT-13317 was orally administered at 100 mg/kg in 1% CMC once a day for 14 days starting from the day of sciatic nerve ligation.
Peripheral rat mononeuropathy (Chronic constriction injury): Neuropathy was induced according to the procedure described by Bennett and Xie (Bennett G J, Xie Y K. A peripheral mononeuropathy in rat that produces disorders of pain sensation like those seen in man. Pain 1988; 33: 87-107).
Briefly, rats were anaesthetized with chloral hydrate 400 mg/kg intraperitoneally (i.p.); under aseptic conditions, the right common sciatic nerve was exposed at the level of the middle thigh by blunt dissection. Proximal to the trifurcation, the nerve was carefully freed from the surrounding connective tissue and four chromic cat gut ligatures (4-0, Ethicon, Norderstedt, Germany) were tied loosely around it with about 1 mm spacing. After haemostasis was confirmed, the incision was closed in layers. Then animals were allowed to recover from anaesthesia and surgery and were kept one per cage with free access to water and standard laboratory chow.
as §1, with “behavioural” for “behavioral”
Data of mechanical threshold (PWT) were converted to a percentage of the maximal possible effect (% MPE), according to Veneroni, O. et al. as follows: %MPE=(left dose PWT−left pre-dose control PWT)/(left naïve PWT−left pre-dose PWT)*100
The obtained % MPE were employed for ED50 calculation (obtained by Grafit v. 5.0), defined as the dose producing 50% reversal of mechanical allodynia.

[3] = tested on: MIA induced hyperalgesia in the rat; experiment: MIA induced hyperalgesia in the rat (paw-pressure test); details: for Mechanical threshold, before treatment, first day basal: baseline
Source text: Peripheral neuropathic induced in rats by administration into the left knee joint of MIA mimics chronic pain condition of osteoarthritis found in a large part of population over 60 years. The MIA test represents an useful and predictive model to study the anti-hyperalgesic potential of a drug in human osteoarthritic condition.
Drugs: The following substances were used: NT-11624 (batch n 66-MM3/16 supplied by Brane Discovery Sri, Gerenzano Italy) and tramadol (Tocris, UK). […] Control rats received saline only.
Sodium monoiodoacetate injection: A single intra-articular injection of sodium iodoacetate (MIA) was introduced into the right knee joint. […] Briefly, rats were deeply anaesthetized by ethylic ether. Following abolition of the hindpaw pinch withdrawal reflex, a 27-gauge needle was introduced into the joint cavity between the tibial plateau and femoral condyles. Once in place, 2 mg of MIA were solubilized in a volume of 25 ul and injected into the joint and the animal was allowed to recover for 14 days prior to pain assessment. It has consistently been shown that this dose of MIA causes osteoarthritic-like focal lesions in articular cartilage and subchondral bone thickening 14 days after administration Guingamp C. et al. Arthritis Rheum 40, 1670-9 (1997). Therefore this model can easily and quickly reproduce osteoarthritic-like lesions and functional impairment in rats, similar to that observed in human disease.
The administration of MIA induces in rats a hyperalgesic response to mechanical stimuli that reaches its statistical significance 5 days after administration and persists for 4 weeks (Fernihough et al. Pain 112:83-93 (2004)).
Control rats were treated with an equal volume of saline. […]
Starting from day 17 after MIA injection, paw pressure tests were performed.
Mechanical hyperalgesia: Paw mechanical sensitivity was determined using a Randall & Selitto apparatus exerting a force that increases at constant rate (32 g/s). The stimulus at which rats withdrawn the paw was evaluated before treatment (First day basal) and at the end of the treatment as following: before last treatment (pre-dose), and after last treatment (15, 30, 45, 60 min, 24, 48 and 72 h).
Results represent the mean of mechanical thresholds expressed as grams. To avoid any possible damage to the animal paw the maximum applied force was fixed at 240 g.

[4] = MIA rats, 14 days b.i.d. p.o. (NT-11624 150 mg/kg, tramadol 40 mg/kg)
[5] = MIA rats, single p.o. administration on saline b.i.d. (NT-11624 150 mg/kg, tramadol 40 mg/kg)

## Cc1ccc(N2C(=O)CN3C(=O)CCC32)cc1 (stereo not shown) [NT-13317, 1-p-tolyl-tetrahydropyrrolo[1,2a]imidazole-2,5-dione]
[1]; 100 mg/kg p.o.
  Dose-response experiment, 100 mg/kg: confirmed the results of the first experiment
  Effect 4 h after administration at the end of the third week: retained maximal efficacy; also recorded: still a beneficial effect
  Effect 8 hr after administration at the end of the third week: not any more significant
[1]; 100 mg/kg p.o. once daily, 5 days/week for 3 weeks
  Reduction of mechanical hyperalgesia over three weeks of treatment (in words): statistically significant reduction of mechanical hyperalgesia; also recorded: maximal at the end of week 3
[1]; 10 and 30 mg/kg p.o.
  Dose-response experiment, lower doses: inactive
[1]; oxaliplatin i.p. group
  Paw pressure, pre-test before all treatments: 58.9 ± 3.7 g
[1]; oxaliplatin i.p.
  Paw pressure, 1a week - 30 min: 68.7 ± 5.2 g
  Paw pressure, 2a week - 30 min: 74.3 ± 6.1 g
  Paw pressure, 3a week - 30 min: 79.2 ± 6.3 g
  Paw pressure, 3a week - 4 h: 74.3 ± 4.3 g
  Paw pressure, 3a week - 8 h: 53.5 ± 6.3 g
  Paw pressure, 3a week - 24 h: 40.6 ± 5.0 g
[1]; vehicle i.p. (no oxaliplatin) group
  Paw pressure, pre-test before all treatments: 60.6 ± 3.9 g
[1]; vehicle i.p. (no oxaliplatin)
  Paw pressure, 1a week - 30 min: 63.0 ± 4.3 g
  Paw pressure, 2a week - 30 min: 66.1 ± 4.5 g
  Paw pressure, 3a week - 30 min: 74.8 ± 5.4 g
  Paw pressure, 3a week - 4 h: 73.8 ± 4.4 g
  Paw pressure, 3a week - 8 h: 68.5 ± 3.7 g
  Paw pressure, 3a week - 24 h: 69.9 ± 4.6 g
[2]; CCI group
  Paw pressure, pre-test before all treatments: 60.7 ± 2.7 g
[2]; CCI
  Paw pressure, 5 day 30 min: 41.6 ± 4.2 g
  Paw pressure, 10 day 30 min: 51.9 ± 5.2 g
  Paw pressure, 14 day 30 min: 53.4 ± 5.5 g
  Paw pressure, 14 day 4 h: 52.9 ± 5.2 g
  Paw pressure, 14 day 8 h: 51.6 ± 4.4 g
  Paw pressure, 15 day 24 h: 47.8 ± 4.7 g
  Paw pressure, 18 day 3 days: 43.6 ± 5.1 g
[2]; SHAM group
  Paw pressure, pre-test before all treatments: 62.3 ± 3.5 g
[2]; SHAM
  Paw pressure, 5 day 30 min: 57.7 ± 4.3 g
  Paw pressure, 10 day 30 min: 55.8 ± 5.0 g
  Paw pressure, 14 day 30 min: 59.2 ± 3.9 g
  Paw pressure, 14 day 4 h: 57.2 ± 4.4 g
  Paw pressure, 14 day 8 h: 63.2 ± 6.0 g
  Paw pressure, 15 day 24 h: 61.6 ± 5.2 g
  Paw pressure, 18 day 3 days: 60.7 ± 6.2 g
[2]; i.c.v. single administration
  Activity relative to gabapentin: ten times more active than gabapentin
[2]; p.o. 100 mg/kg once a day for 14 days from the day of sciatic nerve ligation
  Effect on paw pressure test after the last administration (in words): significant effect on paw pressure test up to 24 hr

## COc1cccc(C2(O)CCCCC2CN(C)C)c1 (stereo not shown) [TRAMADOL, tramadol, reference compound]
[3]; [4]
  Mechanical threshold, after last treatment 15 min: 38.8 ± 2.2 g
  Mechanical threshold, after last treatment 30 min: 36.4 ± 2.9 g
  Mechanical threshold, after last treatment 45 min: 32.8 ± 3.4 g
[3]; MIA rats, groups later treated 14 days b.i.d. p.o. (NT-11624 150 mg/kg, tramadol 40 mg/kg)
  Mechanical threshold, before treatment, first day basal: 59.2 ± 3.1 g
[3]; MIA rats, single administration groups (saline 14 days b.i.d. first)
  Mechanical threshold, before treatment, first day basal: 62.8 ± 3.0 g
[3]; MIA rats, single administration on saline b.i.d., before the single p.o. dose (NT-11624 150 mg/kg, tramadol 40 mg/kg)
  Mechanical threshold, before last treatment, pre-dose: 25.5 ± 3.8 g
[3]; [5]
  Mechanical threshold, after last treatment 15 min: 39.2 ± 4.1 g
  Mechanical threshold, after last treatment 30 min: 43.4 ± 3.6 g
  Mechanical threshold, after last treatment 45 min: 36.2 ± 3.4 g
[3]; MIA rats, single p.o. administration on saline b.i.d., tramadol 40 mg/kg
  Mechanical threshold, after last treatment 60 min: 27.2 ± 3.4 g
[3]; single oral dose after saline b.i.d. for 14 days (NT-11624 150 mg/kg, tramadol 40 mg/kg)
  Effect of a single oral dose on mechanical threshold (in words): significant anti-hyperalgesic effect from 15 to 60 min
[3]; treatment for 14 days b.i.d. p.o. (NT-11624 150 mg/kg, tramadol 40 mg/kg)
  Antihyperalgesic activity after the last treatment (in words): only a weak antihyperalgesic activity 15 and 30 min after the last treatment
